The values below come from patent US11786517B2, “Methods of treatment using a JAK inhibitor compound” (THERAVANCE BIOPHARMA R&D IP, LLC, priority 2017, dated 2023).

Data set [1] is described as follows: Ocular pharmacokinetics in rabbit eyes. It counts as in vivo, New Zealand white rabbits. The procedure: The objective of this assay was to determine the pharmacokinetics of the test compound in rabbit ocular tissues.
The compound of the invention, 5-ethyl-2-fluoro-4-(3-(5-(1-methylpiperidin-4-yl)-4,5,6,7-tetrahydro-1H-imidazo[4,5-c]pyridin-2-yl)-1H-indazol-6-yl)phenol (1) was dissolved in either 10% 2-hydroxypropyl-β-cyclodextrin to attain a target concentration of 4 mg/mL or in purified water to attain a target concentration of 1 mg/mL. Bilateral intravitreal injection (50 μL/eye) of the solution of test compound was administered to New Zealand white rabbits in two dose groups, 200 μg/eye and 50 μg/eye, respectively, for the cyclodextrin and water vehicle formulations, respectively. The test compound concentration was measured in ocular tissues: vitreous, aqueous, retina/choroid and iris-ciliary body at pre-determined time points post injection (30 min, 4 h, 1 d, 3 d, 7 d, 14 d). Two rabbits (four eyes) were dosed for each time point.
A suspension formulation was prepared by combining crystalline compound 1 of Example 1 with 0.5% hydroxypropyl methylcellulose (HPMC E5)+0.02% Tween 80 to attain a target concentration of 10 mg/mL. Bilateral intravitreal injection (50 μL/eye) of the suspension of test compound was administered to New Zealand white rabbits (500 μg/eye). The test compound concentration was measured in ocular tissues as in the […] at 30 min, 2 wks, 4 wks, 6 wks, and 8 wks post injection. […] The behavior is consistent with the solubility of compound 1 in the vehicle and the ocular pharmacokinetic behavior in the solution formulation. The drug concentration in plasma was measured and found to be at least 3 orders of magnitude lower than the concentration in vitreous tissue.

Data set [2] relates to IFNγ induced pSTAT1 in rabbit retina/choroid tissue. Description: Pharmacodynamic assay: inhibition of IFNγ-induced pSTAT1 in rabbit eyes. Type of data set: in vivo, New Zealand White rabbits. To be noted: 0.9 mg intravitreal suspension, 1 week pre-treatment. On the procedure:
The ability of a single intravitreal administration of test compound to inhibit interferon-gamma (IFNγ) induced phosphorylation of STAT1 protein (pSTAT1) was measured in rabbit retina/choroid tissue.
A suspension formulation was prepared by combining compound 1 of Example 1, with 0.5% hydroxypropyl methylcellulose (HPMC E5), 0.02% Tween 80, and 9 mg/mL sodium chloride in purified water to attain a target concentration of 20 mg/mL.
Male, New Zealand White rabbits (Liveon Biolabs, India) were used for the studies. Animals were acclimated after arrival at the research facilities (Jubilant Biosys Ltd., India). Each rabbit was given a total of two intravitreal (IVT) injections with a total dose volume of 50 μL per eye. The first IVT injection (45 μL per eye) delivered 0.9 mg of test compound or vehicle. One week later, a second IVT injection (5 μL per eye) delivered IFNγ (1 μg/eye; stock solution 1 mg/mL; Kingfisher Biotech) or vehicle for the induction of IP-10. […]
Tissues were collected 2 hours after the second IVT injection with IFNγ. Retina/choroid tissues (R/C) were collected and homogenized, and pSTAT1 levels were measured by quantitative Western Blot on the ProteinSimple WES instrument. The percent inhibition of IFNγ-induced pSTAT1 was calculated in comparison to the vehicle/vehicle and vehicle/IFNγ groups.

Turning to `CCc1cc(O)c(F)cc1-c1ccc2c(-c3nc4c([nH]3)CCN(C3CCN(C)CC3)C4)n[nH]c2c1` [Example 1, Crystalline hydrate of 5-ethyl-2-fluoro-4-(3-(5-(1-methylpiperidin-4-yl)-4,5,6,7-tetrahydro-1H-imidazo[4,5-c]pyridin-2-yl)-1H-indazol-6-yl)phenol], the “drug concentration in plasma lower than concentration in vitreous tissue” value in data set [1] (intravitreal injection, listed as compound 1 of Example 1) is on record as “at least 3 orders of magnitude”. Also, the “clearance rate, linear decrease in drug concentration in the vitreous” value in data set [1] (intravitreal suspension 500 μg/eye, 30 min to 6 weeks) is “approximately 3 μg/mL/day”. The “inhibition of IFNγ-induced pSTAT1” value in data set [2] is 85%.
